Measurements taken from ChEMBL document CHEMBL1144784, “A novel series of potent and selective ketone histone deacetylase inhibitors with antitumor activity in vivo” (J Med Chem, 2008).

Experiments:
[1] = tested on: Mus musculus; assay: Toxicity against human HCT116 cells xenografted BALB/c mouse assessed as body weight loss at 100 mg/kg, ip administered 5 days per week for 2.5 weeks; type: organism-based, HCT-116; parameters: dose 100 mg/kg, route intraperitoneal; settings: in vivo
[2] = tested on: Plasma; assay: Stability in dog plasma at 5 uM after 24 hrs; type: ADME, cell-free, Canis lupus familiaris
[3] = tested on: HeLa; assay: Antiproliferative activity against human HeLa cells by CellTiter-Blue cell viability assay; type: functional, cell-based
[4] = tested on: Plasma; assay: Stability in human plasma at 5 uM after 24 hrs; type: ADME, cell-free
[5] = Clearance in Sprague-Dawley rat plasma at 3 mg/kg, iv; type: ADME, organism-based; parameters: dose 3 mg/kg, route intravenous
[6] = tested on: Plasma; assay: Stability in mouse plasma at 5 uM after 24 hrs; type: ADME, cell-free
[7] = AUC (0 to infinity) in Sprague-Dawley rat at 3 mg/kg, iv; type: ADME, organism-based; parameters: dose 3 mg/kg, route intravenous, time infinity; settings: plasma
[8] = biological target: Histone deacetylase 1 (Homo sapiens, UniProt Q13547)
[9] = tested on: Plasma; assay: Stability in rat plasma at 5 uM after 24 hrs; type: ADME, cell-free
[10] = biological target: T1, Histone deacetylase 4 (Homo sapiens, UniProt P56524); assay: Inhibition of HDAC4 gain-of-function phenotype expressed in Escherichia coli
Target sequence in this assay (P56524 whole entry, looked up): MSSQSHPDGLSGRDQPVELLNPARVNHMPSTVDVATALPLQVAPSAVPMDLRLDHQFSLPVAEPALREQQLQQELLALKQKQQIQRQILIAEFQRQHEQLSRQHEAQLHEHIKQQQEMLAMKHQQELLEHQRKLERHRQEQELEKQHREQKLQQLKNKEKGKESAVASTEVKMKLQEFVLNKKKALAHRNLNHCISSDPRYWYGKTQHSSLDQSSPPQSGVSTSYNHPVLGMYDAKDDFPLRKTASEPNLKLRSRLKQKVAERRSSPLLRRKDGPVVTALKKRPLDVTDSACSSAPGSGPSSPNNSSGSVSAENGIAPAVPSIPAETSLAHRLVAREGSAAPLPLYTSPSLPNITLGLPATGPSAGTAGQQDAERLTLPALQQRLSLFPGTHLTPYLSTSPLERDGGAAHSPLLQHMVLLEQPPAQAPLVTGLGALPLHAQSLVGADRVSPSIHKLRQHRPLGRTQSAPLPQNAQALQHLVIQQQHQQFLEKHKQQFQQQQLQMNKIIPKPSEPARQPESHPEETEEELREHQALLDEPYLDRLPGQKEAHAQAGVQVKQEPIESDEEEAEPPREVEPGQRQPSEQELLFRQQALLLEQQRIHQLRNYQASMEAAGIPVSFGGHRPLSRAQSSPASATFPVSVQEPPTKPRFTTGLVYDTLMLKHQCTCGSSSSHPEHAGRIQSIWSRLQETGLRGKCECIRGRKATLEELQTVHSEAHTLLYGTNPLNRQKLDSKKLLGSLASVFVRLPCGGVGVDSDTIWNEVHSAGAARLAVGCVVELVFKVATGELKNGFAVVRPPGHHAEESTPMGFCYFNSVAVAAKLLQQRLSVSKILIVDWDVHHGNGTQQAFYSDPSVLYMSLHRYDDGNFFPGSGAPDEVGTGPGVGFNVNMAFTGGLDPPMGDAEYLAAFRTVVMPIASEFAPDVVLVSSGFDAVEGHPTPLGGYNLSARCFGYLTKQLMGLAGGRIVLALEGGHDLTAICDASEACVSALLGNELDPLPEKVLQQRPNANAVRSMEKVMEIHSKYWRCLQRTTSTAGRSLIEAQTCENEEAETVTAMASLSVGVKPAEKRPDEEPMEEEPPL

[11] = tested on: Plasma; assay: Stability in human plasma at 5 uM after 4 hrs; type: ADME, cell-free
[12] = tested on: Plasma; assay: Stability in dog plasma at 5 uM after 4 hrs; type: ADME, cell-free, Canis lupus familiaris
[13] = biological target: Histone deacetylase 3 (Homo sapiens, UniProt O15379)
[14] = Antiproliferative activity against human renal epithelial cells by CellTiter-Blue cell viability assay; type: ADME, cell-based
[15] = tested on: A549; assay: Antiproliferative activity against human A549 cells by CellTiter-Blue cell viability assay; type: functional, cell-based
[16] = biological target: T2, Histone deacetylase 8 (Homo sapiens, UniProt Q9BY41); assay: Inhibition of HDAC8 expressed in Escherichia coli
T2 sequence (Q9BY41 whole entry): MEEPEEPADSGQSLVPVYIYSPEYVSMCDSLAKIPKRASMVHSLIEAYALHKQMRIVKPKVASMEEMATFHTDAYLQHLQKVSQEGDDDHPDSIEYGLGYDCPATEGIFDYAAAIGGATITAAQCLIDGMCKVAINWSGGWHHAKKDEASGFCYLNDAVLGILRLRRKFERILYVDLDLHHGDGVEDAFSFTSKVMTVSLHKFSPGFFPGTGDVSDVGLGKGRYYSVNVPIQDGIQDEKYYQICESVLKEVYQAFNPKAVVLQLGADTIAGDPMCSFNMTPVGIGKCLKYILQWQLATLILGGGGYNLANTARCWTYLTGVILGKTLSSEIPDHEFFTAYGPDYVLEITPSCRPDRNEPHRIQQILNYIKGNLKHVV

[17] = tested on: HCT-116; assay: Antiproliferative activity against human HCT116 cells by CellTiter-Blue cell viability assay; type: functional, cell-based
[18] = tested on: Plasma; assay: Stability in rat plasma at 5 uM after 4 hrs; type: ADME, cell-free
[19] = biological target: T3, Protein deacetylase HDAC6 (Homo sapiens, UniProt Q9UBN7)
T3 sequence (Q9UBN7 whole entry): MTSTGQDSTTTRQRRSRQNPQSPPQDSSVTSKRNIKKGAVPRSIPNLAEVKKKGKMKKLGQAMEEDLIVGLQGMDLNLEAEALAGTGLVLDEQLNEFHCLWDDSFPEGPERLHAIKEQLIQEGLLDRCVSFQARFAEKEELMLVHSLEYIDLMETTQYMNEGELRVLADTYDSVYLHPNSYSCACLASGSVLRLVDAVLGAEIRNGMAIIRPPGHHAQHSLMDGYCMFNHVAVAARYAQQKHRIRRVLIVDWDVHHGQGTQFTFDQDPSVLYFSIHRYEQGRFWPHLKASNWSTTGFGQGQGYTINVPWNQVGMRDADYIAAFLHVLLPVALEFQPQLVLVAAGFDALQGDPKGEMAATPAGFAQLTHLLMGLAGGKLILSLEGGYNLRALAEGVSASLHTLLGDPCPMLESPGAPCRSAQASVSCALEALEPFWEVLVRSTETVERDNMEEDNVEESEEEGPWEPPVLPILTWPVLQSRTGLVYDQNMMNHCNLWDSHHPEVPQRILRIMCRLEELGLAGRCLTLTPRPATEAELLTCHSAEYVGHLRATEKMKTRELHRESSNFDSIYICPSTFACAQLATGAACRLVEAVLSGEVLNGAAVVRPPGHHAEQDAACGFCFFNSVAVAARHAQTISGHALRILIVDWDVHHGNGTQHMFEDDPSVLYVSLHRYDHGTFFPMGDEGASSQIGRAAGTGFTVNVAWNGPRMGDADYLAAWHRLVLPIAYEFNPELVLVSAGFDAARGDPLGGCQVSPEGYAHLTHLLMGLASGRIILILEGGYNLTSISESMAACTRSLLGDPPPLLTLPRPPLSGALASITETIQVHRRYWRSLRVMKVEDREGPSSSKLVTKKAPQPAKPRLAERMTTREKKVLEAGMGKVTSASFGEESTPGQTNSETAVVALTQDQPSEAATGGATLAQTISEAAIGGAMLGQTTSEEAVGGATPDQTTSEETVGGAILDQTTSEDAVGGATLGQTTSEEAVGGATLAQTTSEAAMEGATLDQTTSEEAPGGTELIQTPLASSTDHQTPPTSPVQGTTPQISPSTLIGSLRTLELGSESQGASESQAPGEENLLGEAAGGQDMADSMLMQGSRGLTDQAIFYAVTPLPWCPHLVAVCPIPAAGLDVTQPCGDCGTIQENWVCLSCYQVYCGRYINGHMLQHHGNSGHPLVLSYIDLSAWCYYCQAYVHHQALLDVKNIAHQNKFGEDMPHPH

[20] = biological target: Histone deacetylase 5 (Homo sapiens, UniProt Q9UQL6); assay: Inhibition of HDAC5 expressed in Escherichia coli
[21] = tested on: Plasma; assay: Stability in mouse plasma at 5 uM after 4 hrs; type: ADME, cell-free
[22] = biological target: T1, Histone deacetylase 4; assay: Inhibition of HDAC4 expressed in Escherichia coli
Target sequence in this assay (P56524 whole entry): as the sequence (P56524 whole entry, looked up) above

[23] = biological target: T4, Histone deacetylase 7 (Homo sapiens, UniProt Q8WUI4); assay: Inhibition of HDAC7 expressed in Escherichia coli
T4 sequence (Q8WUI4 whole entry): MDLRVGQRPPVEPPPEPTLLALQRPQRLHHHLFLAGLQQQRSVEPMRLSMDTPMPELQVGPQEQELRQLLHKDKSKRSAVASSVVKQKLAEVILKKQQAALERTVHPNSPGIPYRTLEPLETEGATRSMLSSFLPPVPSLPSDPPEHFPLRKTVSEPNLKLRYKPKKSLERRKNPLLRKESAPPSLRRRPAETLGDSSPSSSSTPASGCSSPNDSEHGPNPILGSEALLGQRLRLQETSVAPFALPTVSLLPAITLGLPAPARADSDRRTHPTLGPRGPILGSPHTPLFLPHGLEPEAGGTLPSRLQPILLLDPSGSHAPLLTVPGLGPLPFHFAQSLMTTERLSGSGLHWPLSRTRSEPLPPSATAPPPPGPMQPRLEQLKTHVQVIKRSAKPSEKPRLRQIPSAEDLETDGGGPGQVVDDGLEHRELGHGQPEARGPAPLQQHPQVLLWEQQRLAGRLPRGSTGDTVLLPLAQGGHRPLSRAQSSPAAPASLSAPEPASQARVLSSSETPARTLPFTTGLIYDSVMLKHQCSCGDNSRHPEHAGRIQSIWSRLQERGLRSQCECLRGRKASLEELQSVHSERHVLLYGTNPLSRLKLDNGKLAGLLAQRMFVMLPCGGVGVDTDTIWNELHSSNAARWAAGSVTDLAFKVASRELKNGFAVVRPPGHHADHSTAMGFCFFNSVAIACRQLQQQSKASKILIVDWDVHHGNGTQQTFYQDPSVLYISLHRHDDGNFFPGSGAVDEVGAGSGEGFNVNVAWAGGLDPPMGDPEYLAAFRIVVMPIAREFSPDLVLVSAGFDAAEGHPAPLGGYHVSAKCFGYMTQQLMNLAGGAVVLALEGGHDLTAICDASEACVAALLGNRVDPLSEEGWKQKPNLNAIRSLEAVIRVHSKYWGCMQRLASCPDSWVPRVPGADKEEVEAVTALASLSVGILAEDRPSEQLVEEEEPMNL

[24] = biological target: Histone deacetylase 2 (Homo sapiens, UniProt Q92769)
[25] = tested on: G-401; assay: Antiproliferative activity against human G401 cells by CellTiter-Blue cell viability assay; type: functional, cell-based
[26] = tested on: A2780; assay: Antiproliferative activity against human A2780 cells by CellTiter-Blue cell viability assay; type: functional, cell-based
[27] = Toxicity in ip dosed BALB/c mouse assessed as maximum tolerated dose; type: organism-based; settings: in vivo
[28] = tested on: Mus musculus; assay: Toxicity against human HCT116 cells xenografted BALB/c mouse assessed as body weight loss at 25 mg/kg, ip administered 5 days per week for 2.5 weeks; type: organism-based, HCT-116; parameters: dose 25 mg/kg, route intraperitoneal; settings: in vivo
[29] = tested on: HCT-116; assay: Antitumor activity against human HCT116 cells xenografted BALB/c mouse assessed as tumor growth inhibition at 60 mg/kg, ip administered for 5 days per week for 2.5 weeks; settings: HCT-116, ip, read-out: TGI
[30] = biological target: T5, Protein deacetylase HDAC6 (Homo sapiens) (UniProt Q9UBN7); assay: Inhibition of HDAC6 at 10 uM
T5 sequence (whole entry): T3 sequence (Q9UBN7 whole entry)

[31] = biological target: T6, Histone deacetylase 8 (Homo sapiens) (UniProt Q9BY41); settings: 10 uM
T6 sequence (whole entry): T2 sequence (Q9BY41 whole entry)
Description: Inhibition of HDAC8 expressed in Escherichia coli at 10 uM

[32] = Intrinsic clearance in Sprague-Dawley rat liver microsomes; type: ADME, Microsome
[33] = Terminal half life in Sprague-Dawley rat; type: ADME, organism-based; settings: in vivo
[34] = Clearance in Sprague-Dawley rat plasma; type: ADME, organism-based
[35] = tested on: Mus musculus; assay: Toxicity against human HCT116 cells xenografted BALB/c mouse assessed as body weight loss at 60 mg/kg, ip administered 5 days per week for 2.5 weeks; type: organism-based, HCT-116; parameters: dose 60 mg/kg, route intraperitoneal; settings: in vivo
[36] = Intrinsic clearance in human liver microsomes; type: ADME, Microsome
[37] = Oral bioavailability in Sprague-Dawley rat; type: ADME, organism-based; settings: in vivo

Sequence of Histone deacetylase 5 (Q9UQL6 whole entry): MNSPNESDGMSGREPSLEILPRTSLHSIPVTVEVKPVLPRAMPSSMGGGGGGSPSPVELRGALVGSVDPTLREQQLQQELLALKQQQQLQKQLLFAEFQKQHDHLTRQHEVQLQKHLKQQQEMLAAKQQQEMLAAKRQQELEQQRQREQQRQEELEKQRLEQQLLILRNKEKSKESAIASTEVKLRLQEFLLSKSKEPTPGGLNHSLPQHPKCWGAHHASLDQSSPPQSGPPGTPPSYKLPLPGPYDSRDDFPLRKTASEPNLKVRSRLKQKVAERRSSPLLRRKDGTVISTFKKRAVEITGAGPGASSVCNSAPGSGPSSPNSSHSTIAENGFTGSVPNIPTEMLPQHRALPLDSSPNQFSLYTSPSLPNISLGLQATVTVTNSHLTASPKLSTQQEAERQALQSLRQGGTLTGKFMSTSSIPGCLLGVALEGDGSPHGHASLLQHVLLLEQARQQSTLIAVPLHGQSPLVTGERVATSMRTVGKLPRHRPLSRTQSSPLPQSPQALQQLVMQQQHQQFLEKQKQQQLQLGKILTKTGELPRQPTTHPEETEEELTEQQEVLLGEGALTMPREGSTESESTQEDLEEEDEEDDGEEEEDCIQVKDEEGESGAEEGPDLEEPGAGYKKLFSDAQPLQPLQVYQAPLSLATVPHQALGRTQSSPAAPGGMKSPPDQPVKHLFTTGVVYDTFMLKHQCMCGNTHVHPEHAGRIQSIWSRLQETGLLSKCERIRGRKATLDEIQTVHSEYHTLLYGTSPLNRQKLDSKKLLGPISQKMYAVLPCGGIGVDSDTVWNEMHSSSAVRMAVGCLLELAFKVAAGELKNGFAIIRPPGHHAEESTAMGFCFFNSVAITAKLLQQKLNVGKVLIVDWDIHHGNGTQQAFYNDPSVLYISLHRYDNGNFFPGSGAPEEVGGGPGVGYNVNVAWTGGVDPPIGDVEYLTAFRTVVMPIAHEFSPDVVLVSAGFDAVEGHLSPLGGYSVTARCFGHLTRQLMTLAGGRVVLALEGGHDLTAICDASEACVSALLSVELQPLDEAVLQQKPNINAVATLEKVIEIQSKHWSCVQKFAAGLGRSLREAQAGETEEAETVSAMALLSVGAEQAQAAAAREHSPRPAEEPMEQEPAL
Sequence of Histone deacetylase 2 (Q92769 whole entry): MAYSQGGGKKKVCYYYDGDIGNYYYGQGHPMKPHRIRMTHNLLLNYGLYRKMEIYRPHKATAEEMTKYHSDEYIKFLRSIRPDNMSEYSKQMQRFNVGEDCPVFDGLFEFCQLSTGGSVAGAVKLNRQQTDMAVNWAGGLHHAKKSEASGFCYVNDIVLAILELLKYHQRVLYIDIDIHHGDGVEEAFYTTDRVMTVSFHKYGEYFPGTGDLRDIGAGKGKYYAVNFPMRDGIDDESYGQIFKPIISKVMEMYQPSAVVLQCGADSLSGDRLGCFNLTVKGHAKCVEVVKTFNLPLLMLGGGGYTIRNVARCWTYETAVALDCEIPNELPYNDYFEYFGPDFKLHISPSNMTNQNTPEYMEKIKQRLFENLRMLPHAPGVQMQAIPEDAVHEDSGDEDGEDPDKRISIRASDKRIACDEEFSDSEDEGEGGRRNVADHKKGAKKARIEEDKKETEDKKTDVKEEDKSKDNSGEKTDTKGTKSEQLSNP
Sequence of Histone deacetylase 3 (O15379 whole entry): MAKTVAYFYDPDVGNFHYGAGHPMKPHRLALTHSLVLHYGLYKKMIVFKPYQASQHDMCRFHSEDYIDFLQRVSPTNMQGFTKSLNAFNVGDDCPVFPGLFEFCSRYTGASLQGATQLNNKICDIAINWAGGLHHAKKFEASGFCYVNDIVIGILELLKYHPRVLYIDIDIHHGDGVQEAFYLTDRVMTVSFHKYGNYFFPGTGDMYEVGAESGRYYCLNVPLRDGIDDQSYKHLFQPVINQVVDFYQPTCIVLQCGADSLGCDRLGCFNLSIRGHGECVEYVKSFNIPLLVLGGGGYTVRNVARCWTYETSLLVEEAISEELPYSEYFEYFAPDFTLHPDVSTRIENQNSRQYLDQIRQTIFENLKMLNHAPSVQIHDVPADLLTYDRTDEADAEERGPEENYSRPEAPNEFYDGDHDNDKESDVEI
Sequence of Histone deacetylase 1 (Q13547 whole entry): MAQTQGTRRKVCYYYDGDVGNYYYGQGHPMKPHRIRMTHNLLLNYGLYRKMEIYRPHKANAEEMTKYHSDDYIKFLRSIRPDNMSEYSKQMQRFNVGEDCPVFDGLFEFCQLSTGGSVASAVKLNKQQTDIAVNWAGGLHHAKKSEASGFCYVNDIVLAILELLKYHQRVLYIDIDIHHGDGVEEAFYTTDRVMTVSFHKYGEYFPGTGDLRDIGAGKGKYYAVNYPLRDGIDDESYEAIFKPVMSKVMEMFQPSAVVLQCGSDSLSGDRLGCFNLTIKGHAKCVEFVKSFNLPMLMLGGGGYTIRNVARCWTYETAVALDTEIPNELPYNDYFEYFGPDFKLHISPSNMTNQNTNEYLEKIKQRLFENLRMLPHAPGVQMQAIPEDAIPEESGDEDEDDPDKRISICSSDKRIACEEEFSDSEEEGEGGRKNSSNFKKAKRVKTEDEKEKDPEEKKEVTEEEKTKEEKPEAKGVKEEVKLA

Row | IC50 [3] [nM] | IC50 [8] [nM] | IC50 [10] [nM] | IC50 [13] [nM] | IC50 [20] [nM] | IC50 [22] [nM] | IC50 [23] [nM] | IC50 [24] [nM] | Structure (SMILES) | Stability [11] | Stability [12] | IC50 [14] [nM] | IC50 [15] [nM] | IC50 [16] [nM] | IC50 [17] [nM] | Stability [18] | IC50 [19] [nM] | Stability [21] | IC50 [25] [nM] | IC50 [26] [nM] | MTD [27] [mg/kg] | also measured
1 | 2000 | 140 | – | – | – | – | – | – | CC(=O)CCCCC[C@H](NC(=O)CCN1CCCCC1)C(=O)Nc1cnc2ccccc2c1.Cl.Cl | – | – | – | – | – | – | – | – | – | – | – | – | Stability [2]: Stable; Stability [4]: Stable; clearance [5]: > 150 mL/min/kg; Activity [6]: Not Active; AUC(0-inf) [7]: 0.05 µM·h; Activity [9]: Not Active
2 | 3100 | 670 | 4200 | 1000 | > 10000 | > 10000 | > 10000 | 880 | COc1ccc2[nH]c(C)c(CC(=O)N[C@@H](CCCCCC(C)=O)c3nc4ccc(Cl)cc4[nH]3)c2c1 | Stable | Stable | 41000 | 8200 | > 10000 | 4200 | Stable | 970 | Stable | 7500 | 11000 | – | –

Further lines, the compound ahead of its results:

Row | Structure (SMILES) | IC50 [3] [nM] | IC50 [8] [nM] | IC50 [10] [nM] | IC50 [13] [nM] | IC50 [20] [nM] | IC50 [22] [nM] | IC50 [23] [nM] | IC50 [24] [nM] | Stability [11] | Stability [12] | IC50 [14] [nM] | IC50 [15] [nM] | IC50 [16] [nM] | IC50 [17] [nM] | Stability [18] | IC50 [19] [nM] | Stability [21] | IC50 [25] [nM] | IC50 [26] [nM] | MTD [27] [mg/kg] | also measured
3 | O=C(CCCCCCC(=O)Nc1ccccc1)NO [VORINOSTAT] | – | – | – | – | – | – | – | – | – | – | – | – | – | – | – | – | – | – | – | – | Activity [1]: < 10%
4 | Nc1ccccc1NC(=O)c1ccc(CNC(=O)OCc2cccnc2)cc1 [ENTINOSTAT] | – | – | – | – | – | – | – | – | – | – | > 20000 | 1200 | – | 700 | – | – | – | 1300 | 3000 | 25 | Activity [28]: < 10%; inhibition in vivo at 60 mg/kg [29]: 69%
5 | CCC(=O)CCCCC[C@H](NC(=O)Cc1c(C)[nH]c2ccc(OC)cc12)c1ncc(-c2ccccc2)[nH]1 | 340 | 26 | > 10000 | 48 | > 10000 | > 10000 | > 10000 | 59 | – | – | 5300 | 5200 | – | 330 | – | – | – | 250 | 420 | – | inhibition [30]: 40%; inhibition [31]: 40%
6 | COc1ccc2[nH]c(C)c(CC(=O)N[C@@H](CCCCCC(C)=O)c3ncc(-c4ccccc4)[nH]3)c2c1 | 880 | 59 | 6000 | 120 | > 10000 | > 10000 | > 10000 | 110 | Stable | Stable | 16000 | 6300 | > 5000 | 500 | Stable | 340 | Stable | 960 | 2200 | 60 | microsomal CLint [32]: > 400 µL/min/mg; half-life [33]: 1.3 h; clearance [34]: 80 mL/min/kg; Activity [35]: < 10%; microsomal CLint [36]: > 400 µL/min/mg; bioavailability [37]: 15%
